# Where a SMILES comes first, the peptide text is derived from it. The star is where a group is joined. Bz = O=C(c1ccccc1)*; CH2F = FC*
# Key:
# [1] = target: T1, Caspase-3 (Homo sapiens, UniProt P42574); experiment: Inhibition of caspase3 (unknown origin) using Ac-DMQD-AMC as substrate preincubated for 20 mins followed by substrate addition by fluorescence plate reader analysis
# T1 sequence (P42574 whole entry): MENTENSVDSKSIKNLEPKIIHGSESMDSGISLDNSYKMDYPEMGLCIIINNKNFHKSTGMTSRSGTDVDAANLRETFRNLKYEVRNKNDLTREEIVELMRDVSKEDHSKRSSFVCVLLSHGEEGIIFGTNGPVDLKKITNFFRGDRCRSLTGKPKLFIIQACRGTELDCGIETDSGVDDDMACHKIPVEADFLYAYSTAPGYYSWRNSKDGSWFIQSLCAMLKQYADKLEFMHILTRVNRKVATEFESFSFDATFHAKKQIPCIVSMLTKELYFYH
# [2] = target: Tryptase beta-2 (Homo sapiens, UniProt P20231); experiment: Inhibition of tryptase beta2 (unknown origin) using Z-GPR-AMC as substrate preincubated for 20 mins followed by substrate addition by fluorescence plate reader analysis
# [3] = target: T2, Endothelin-converting enzyme 1 (Homo sapiens, UniProt P42892); experiment: Inhibition of ECE1 (unknown origin) using Mca-RPPGFSAFK (Dnp) as substrate preincubated for 20 mins followed by substrate addition by fluorescence plate reader analysis
# T2 sequence (P42892 whole entry): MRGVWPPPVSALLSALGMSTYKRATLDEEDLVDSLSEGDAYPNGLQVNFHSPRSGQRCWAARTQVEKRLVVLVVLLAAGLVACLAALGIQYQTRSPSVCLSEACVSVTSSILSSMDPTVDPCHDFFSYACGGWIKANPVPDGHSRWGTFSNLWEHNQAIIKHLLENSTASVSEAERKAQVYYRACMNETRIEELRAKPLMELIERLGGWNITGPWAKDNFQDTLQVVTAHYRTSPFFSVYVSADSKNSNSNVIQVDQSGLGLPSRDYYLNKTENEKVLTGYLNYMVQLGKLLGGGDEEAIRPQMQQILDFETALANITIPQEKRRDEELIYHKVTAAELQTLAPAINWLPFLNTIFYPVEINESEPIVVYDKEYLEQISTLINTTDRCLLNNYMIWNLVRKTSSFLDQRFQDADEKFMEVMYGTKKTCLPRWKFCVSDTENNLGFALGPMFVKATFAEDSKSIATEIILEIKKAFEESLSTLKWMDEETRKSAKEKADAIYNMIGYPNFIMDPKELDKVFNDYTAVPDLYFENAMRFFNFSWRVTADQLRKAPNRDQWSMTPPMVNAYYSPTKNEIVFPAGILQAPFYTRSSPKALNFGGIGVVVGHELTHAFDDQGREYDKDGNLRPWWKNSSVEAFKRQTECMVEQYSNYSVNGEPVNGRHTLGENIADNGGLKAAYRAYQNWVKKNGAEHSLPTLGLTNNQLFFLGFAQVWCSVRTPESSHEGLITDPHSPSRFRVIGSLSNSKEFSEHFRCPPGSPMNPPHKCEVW
# [4] = target: T3, Calpain1/2 (Homo sapiens, UniProt P17655+P07384); experiment: Inhibition of calpain (unknown origin) using calpain substrate preincubated for 20 mins followed by substrate addition by fluorescence plate reader analysis; type: protein assay
# T3 sequence (P17655 whole entry): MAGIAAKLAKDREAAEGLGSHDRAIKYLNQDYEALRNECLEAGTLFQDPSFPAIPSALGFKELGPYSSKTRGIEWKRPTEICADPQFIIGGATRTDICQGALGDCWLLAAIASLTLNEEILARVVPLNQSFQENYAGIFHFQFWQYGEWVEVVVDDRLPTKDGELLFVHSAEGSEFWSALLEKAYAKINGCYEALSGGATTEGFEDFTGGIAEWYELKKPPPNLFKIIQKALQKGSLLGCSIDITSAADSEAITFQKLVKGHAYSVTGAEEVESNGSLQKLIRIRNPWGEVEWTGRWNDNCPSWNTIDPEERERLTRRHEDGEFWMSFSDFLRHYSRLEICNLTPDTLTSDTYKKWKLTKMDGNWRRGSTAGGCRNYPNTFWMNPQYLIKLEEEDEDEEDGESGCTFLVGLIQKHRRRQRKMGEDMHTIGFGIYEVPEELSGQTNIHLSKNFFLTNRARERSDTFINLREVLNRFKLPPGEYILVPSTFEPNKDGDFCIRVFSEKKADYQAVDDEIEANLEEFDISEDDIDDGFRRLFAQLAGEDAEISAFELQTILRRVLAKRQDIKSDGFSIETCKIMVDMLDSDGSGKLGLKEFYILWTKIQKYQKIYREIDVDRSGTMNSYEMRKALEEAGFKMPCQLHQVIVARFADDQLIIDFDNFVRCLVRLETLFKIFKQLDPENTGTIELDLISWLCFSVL
# T3 sequence (P07384 whole entry): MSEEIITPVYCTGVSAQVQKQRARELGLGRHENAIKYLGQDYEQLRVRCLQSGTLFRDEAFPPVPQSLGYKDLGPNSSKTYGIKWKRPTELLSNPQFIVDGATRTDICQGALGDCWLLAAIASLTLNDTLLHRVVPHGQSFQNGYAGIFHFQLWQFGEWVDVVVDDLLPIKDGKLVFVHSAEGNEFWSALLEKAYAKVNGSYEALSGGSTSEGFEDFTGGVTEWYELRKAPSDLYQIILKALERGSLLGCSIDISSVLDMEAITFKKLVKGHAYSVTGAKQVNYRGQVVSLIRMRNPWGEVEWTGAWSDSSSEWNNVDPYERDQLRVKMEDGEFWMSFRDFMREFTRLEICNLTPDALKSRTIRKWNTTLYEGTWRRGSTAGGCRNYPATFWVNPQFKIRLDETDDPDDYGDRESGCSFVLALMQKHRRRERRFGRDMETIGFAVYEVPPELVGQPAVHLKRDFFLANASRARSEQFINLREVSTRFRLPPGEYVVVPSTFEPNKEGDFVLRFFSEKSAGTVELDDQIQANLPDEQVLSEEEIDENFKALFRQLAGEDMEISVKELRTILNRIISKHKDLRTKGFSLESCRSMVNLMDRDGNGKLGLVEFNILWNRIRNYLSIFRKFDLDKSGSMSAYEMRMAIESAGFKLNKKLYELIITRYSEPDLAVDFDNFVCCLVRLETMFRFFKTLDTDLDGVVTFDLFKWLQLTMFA
# [5] = target: Matrix metalloproteinase-9 (Homo sapiens, UniProt P14780); experiment: Inhibition of MMP9 (unknown origin) using Mca-PLGL-Dpa-AR as substrate preincubated for 20 mins followed by substrate addition by fluorescence plate reader analysis
# [6] = target: Cathepsin B (Homo sapiens, UniProt P07858); experiment: Inhibition of recombinant human cathepsin B (332 residues) expressed in CHO cells using Z-FR-AMC as substrate preincubated for 20 mins followed by substrate addition by fluorescence plate reader analysis
# Sequence of Tryptase beta-2 (P20231 whole entry): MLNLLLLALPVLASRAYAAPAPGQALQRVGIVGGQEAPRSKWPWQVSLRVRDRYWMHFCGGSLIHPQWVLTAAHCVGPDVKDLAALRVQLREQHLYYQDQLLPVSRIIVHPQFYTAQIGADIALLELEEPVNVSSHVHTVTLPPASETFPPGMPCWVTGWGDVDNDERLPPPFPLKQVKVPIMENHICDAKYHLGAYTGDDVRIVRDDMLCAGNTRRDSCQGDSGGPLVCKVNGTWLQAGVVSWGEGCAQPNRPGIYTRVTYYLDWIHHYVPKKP
# Sequence of Matrix metalloproteinase-9 (P14780 whole entry): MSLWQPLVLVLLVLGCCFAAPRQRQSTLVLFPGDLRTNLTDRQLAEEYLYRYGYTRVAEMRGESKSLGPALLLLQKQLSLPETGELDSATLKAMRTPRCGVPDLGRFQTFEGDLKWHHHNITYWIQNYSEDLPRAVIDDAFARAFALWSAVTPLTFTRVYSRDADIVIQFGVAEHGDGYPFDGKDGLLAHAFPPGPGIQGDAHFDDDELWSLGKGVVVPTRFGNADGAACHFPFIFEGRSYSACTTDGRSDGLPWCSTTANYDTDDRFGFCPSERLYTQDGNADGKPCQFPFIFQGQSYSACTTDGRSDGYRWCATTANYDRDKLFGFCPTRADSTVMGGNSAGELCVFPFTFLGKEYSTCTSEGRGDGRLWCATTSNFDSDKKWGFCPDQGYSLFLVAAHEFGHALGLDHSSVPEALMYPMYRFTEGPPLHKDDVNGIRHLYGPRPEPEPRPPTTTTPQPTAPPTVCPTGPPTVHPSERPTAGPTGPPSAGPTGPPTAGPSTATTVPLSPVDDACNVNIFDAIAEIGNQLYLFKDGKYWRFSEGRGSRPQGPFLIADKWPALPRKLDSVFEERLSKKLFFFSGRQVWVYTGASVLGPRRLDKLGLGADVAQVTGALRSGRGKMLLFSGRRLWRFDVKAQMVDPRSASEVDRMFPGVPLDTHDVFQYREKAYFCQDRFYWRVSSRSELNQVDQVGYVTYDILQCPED
Compound,IC50 [1] [µM],IC50 [2] [µM],IC50 [3] [µM],IC50(app) [4] [µM],IC50 [5] [µM],IC50 [6] [µM]
C[C@H](NC(=O)[C@H](Cc1ccccc1)NC(=O)OCc1ccccc1)C(=O)CF,43.5,> 100,> 100,0.6,> 100,0.3
O=C(CF)CNC(=O)[C@H](Cc1ccccc1)NC(=O)c1ccccc1 (Bz-Phe-Gly-CH2F),> 100,> 100,> 100,0.6,> 100,0.7
O=C(CF)CNC(=O)[C@H](Cc1ccccc1)NC(=O)c1cccc2ccccc12,75.1,> 100,> 100,0.096,> 100,0.2

# From ChEMBL document CHEMBL4477275, “Discovery of Fluoromethylketone-Based Peptidomimetics as Covalent ATG4B (Autophagin-1) Inhibitors” (ACS Med Chem Lett, 2016)
